Assay results reported in US20210015811A1, “METHODS OF TREATING A PULMONARY BACTERIAL INFECTION USING FLUOROQUINOLONES” (HORIZON ORPHAN, LLC, priority 2009, published 2021).
≈ marks a conversion by molar mass, not a printed value.

Columns and labels:
[1] = system: 114 CF P. aeruginosa isolates; experiment: Aerobic and anaerobic MIC susceptibility testing (broth microdilution, CLSI); format: cell-based, Pseudomonas aeruginosa; settings: for aerobic versus anaerobic MIC distribution (potency under anaerobic conditions): all 114 P. aeruginosa isolates, FIGS. 2A-D; for increase of geometric mean of the MIC by anaerobic incubation / increase of MIC50 under anaerobic conditions: 114 CF isolates; for increase of MIC50 under anaerobic conditions: CAMHB + 1% KNO3 for anaerobic
Excerpt: One hundred and fourteen CF P. aeruginosa isolates were obtained for susceptibility testing from the CF Referral Center for Susceptibility & Synergy Studies at Columbia University (New York, N.Y.) and also from two CF Therapeutics Development Network (TDN) laboratories (Seattle Children's Hospital, Seattle, Wash. and University of North Carolina at Chapel Hill, Chapel Hill, N.C.). About sixty percent were recent isolates (2004-2007) with the remaining forty percent isolated between 1980 and 2004.
The antibiotics used in these studies included tobramycin, levofloxacin, amikacin, and aztreonam which are in use or in development as aerosolized therapies for CF. For aerobic susceptibility tests, levofloxacin hydrochloride, tobramycin sulfate, and amikacin disulfate were purchased from LKT Laboratories (St. Paul, Minn.) and aztreonam base was purchased from MP Biomedicals (Solon, Ohio). All antibiotics used for anaerobic susceptibility tests were purchased from the United States Pharmacopeia (Rockville, Md.).
(§1) Antibiotic MIC endpoints were obtained using the broth microdilution method according to the CLSI reference method. See Clinical and Laboratory Standards Institute. Methods for Dilution Antimicrobial Susceptibility Tests for Bacteria That Grow Aerobically—Seventh Edition: Approved Standard M7-A7. CLSI, Wayne, Pa., USA, 2006. Antibiotics were serially diluted to the following concentrations for aerobic testing: levofloxacin and tobramycin from 0.03-32 mg/L and amikacin and aztreonam from 0.125-128 mg/L. Anaerobic susceptibility testing required the addition of 1% potassium nitrate (KNO3) to cation-adjusted Mueller-Hinton broth (CAMHB) to allow for P. aeruginosa anaerobic respiration. For anaerobic testing, frozen MIC plates were thawed and stored in the anaerobic chamber overnight to ensure elimination of all oxygen prior to inoculation with test strains. The dilution range for all antibiotics was 0.125-128 mg/L for the anaerobic susceptibility tests. Extended incubation of up to 48 hours under anaerobic conditions may be required and was needed for 54% of the isolates.

[2] = system: P. aeruginosa strain PAM1020 (wild-type); experiment: Levofloxacin MIC against isogenic strain PAM1020; format: cell-based; settings: Pseudomonas aeruginosa
Excerpt: (§2) P. aeruginosa strains PAM1020 (wild-type), PAM1032 (na1B), PAM1481 (na1B gyrA (Asp87Tyr)), and PAM1573 (na1B gyrA (Thr83Ile)) represent relevant efflux-mediated and target mutation resistance mechanisms and were used in the levofloxacin time-kill assays.
as §1, with “The dilution range for all antibiotics was 0.125-128 mg/L for the anaerobic susceptibility tests. Extended incubation of up to 48 hours under anaerobic conditions may be required and was needed for 54% of the isolates.” left out
(§3) Aerobic and hypoxic Mueller-Hinton broth (MHB) cultures were diluted to an initial inoculum of 1×10^7-1×10^8 CFU/ml. […] Agar plates were incubated up to 48 hours at 37° C. and bactericidal activity was assessed. […]

[3] = system: P. aeruginosa strain PAM1573 (na1B gyrA (Thr83Ile)); experiment: Levofloxacin MIC against isogenic strain PAM1573; format: cell-based; settings: Pseudomonas aeruginosa
Excerpt: as §2
as §1, with “The dilution range for all antibiotics was 0.125-128 mg/L for the anaerobic susceptibility tests. Extended incubation of up to 48 hours under anaerobic conditions may be required and was needed for 54% of the isolates.” left out
as §3

[4] = system: P. aeruginosa strain PAM1032 (na1B); experiment: Levofloxacin MIC against isogenic strain PAM1032; format: cell-based; settings: Pseudomonas aeruginosa
Excerpt: as §2
as §1, with “The dilution range for all antibiotics was 0.125-128 mg/L for the anaerobic susceptibility tests. Extended incubation of up to 48 hours under anaerobic conditions may be required and was needed for 54% of the isolates.” left out
as §3

[5] = system: P. aeruginosa strain PAM1481 (na1B gyrA (Asp87Tyr)); experiment: Levofloxacin MIC against isogenic strain PAM1481; format: cell-based; settings: Pseudomonas aeruginosa
Excerpt: as §2
as §1, with “The dilution range for all antibiotics was 0.125-128 mg/L for the anaerobic susceptibility tests. Extended incubation of up to 48 hours under anaerobic conditions may be required and was needed for 54% of the isolates.” left out
as §3

[6] = anaerobic vs aerobic incubation

Row | Structure (SMILES) | aerobic versus anaerobic MIC distribution (potency under anaerobic conditions) [1] | increase of geometric mean of the MIC by anaerobic incubation [1, 6] | increase of MIC50 under anaerobic conditions [1, 6] | MIC [2] | isolates with MIC increase >4-fold under anaerobic conditions ([1]; anaerobic vs aerobic incubation, share of 114 CF isolates) | MIC [3] | MIC [4] | MIC [5]
1 | NC[C@H]1O[C@H](O[C@H]2[C@H](O)[C@@H](O[C@H]3O[C@H](CO)[C@@H](O)[C@H](N)[C@H]3O)[C@H](N)C[C@@H]2N)[C@H](N)C[C@@H]1O [tobramycin] | reduced potency | approximately 7 fold | 4 fold | – | – | – | – | –
2 | C[C@H]1COc2c(N3CCN(C)CC3)c(F)cc3c(=O)c(C(=O)O)cn1c23 [levofloxacin] | – | – | 2 fold | 0.125 µg/mL (≈ 0.346 µM) | 4% | 8 µg/mL (≈ 22.1 µM) | 1 µg/mL (≈ 2.77 µM) | 4 µg/mL (≈ 11.1 µM)
3 | C[C@H]1[C@H](NC(=O)/C(=N\OC(C)(C)C(=O)O)c2csc(N)n2)C(=O)N1S(=O)(=O)O [aztreonam] | reduced potency | ~6 fold | 16 fold | – | – | – | – | –
4 | NCC[C@H](O)C(=O)N[C@@H]1C[C@H](N)[C@@H](O[C@H]2O[C@H](CN)[C@@H](O)[C@H](O)[C@H]2O)[C@H](O)[C@H]1O[C@H]1O[C@H](CO)[C@@H](O)[C@H](N)[C@H]1O [amikacin] | reduced potency | ~4 fold | – | – | – | – | – | –
